The nature of experiment [1]: Nav 1.7 or Nav 1.5 IWQ In Vitro Assay: HEK 293 Cells stably transfected with either Nav 1.7 or Nav 1.5 were recorded in population patch-clamp mode with the IonWorks® Quattro automated electrophysiology system in accordance with the manufacturer's specifications (Molecular Devices, LLC, Sunnyvale, Calif.). Sodium channel currents were measured in response to a train of depolarizations that induced successively greater inactivation.Cells were held at −110 mV for three seconds (Nav 1.7) or half a second (Nav 1.5) from a holding voltage of −15 mV, then put through a series of 26 pulses of 150 msec duration to −20 mV at a frequency of 5 Hz. Cells were then left unclamped for a period of 3 to 8 minutes while a single concentration of test compound was added. Cells were then reclamped and put through the same voltage protocol. Current at the end of the 26th pulse to −20 mV was subtracted from the peak current evoked by the 26th pulse to −20 mV to correct for leak current. Percent block was calculated for each concentration in duplicate, and IC50 curves were fitted to percent block as a function of concentration. The conditions noted are these: HEK293.

Experiment [2] is described as follows: Nav 1.7 In Vitro PX Assay: HEK 293 cells stably transfected with human Nav1.7 were recorded in whole cell voltage clamp mode with the PatchXpress automated electrophysiology system (Molecular Devices, LLC, Sunnyvale, Calif.). Compound effects were measured on a partially inactivated state of the sodium channel. Cells were clamped to a holding potential yielding 20 to 50% inactivation. To elicit sodium current, channels were activated by pulsing to −10 mV for 20 msec. This voltage protocol was repeated at a rate of 0.1 Hz throughout the experiment. A single concentration of test compound was applied to cells for a duration of 3 minutes. Peak sodium current was measured at the end of the compound addition period to determine percent inhibition. Three to five cells were tested per concentration, and IC50 curves were fitted to percent inhibition as a function of concentration. To be noted: HEK293.

The IC50 is the point on the concentration scale where inhibition reaches its midpoint.

In the case of `COc1cc(C#CC2CCCC2)c(F)cc1-n1c(=O)ccc2cc(S(=O)(=O)Nc3ccon3)ccc21`, the IC50 is 4.53 nM in experiment [1] and 17.3 nM in experiment [2].
Take `COc1cc(C#CC2(OCC(F)(F)F)CCCC2)c(F)cc1-n1c(=O)ccc2cc(S(=O)(=O)Nc3ccon3)ccc21`: the IC50 in experiment [1] is 9.73 nM; in experiment [2], 33.8 nM.
Taken in the same sequence, the figures for `COc1cc(C#CC2CCCC2)c(Cl)cc1-n1c(=O)ccc2cc(S(=O)(=O)Nc3ccon3)ccc21` were 10 nM and 18.6 nM.
The compound `COc1cc(C#C[C@H]2C[C@@H]2C(F)(F)F)c(F)cc1-n1c(=O)ccc2cc(S(=O)(=O)Nc3ccon3)ccc21` showed an IC50 in experiment [2] of 210 nM.
Turning to `COc1cc(C#C[C@@H]2C[C@@H]2C(F)(F)F)c(F)cc1-n1c(=O)ccc2cc(S(=O)(=O)Nc3ccon3)ccc21`, the IC50 in experiment [1] is 5.5 nM; in experiment [2], 139 nM.
In the case of `COc1cc(C#CC2(C(F)(F)F)CC2)c(F)cc1-n1c(=O)ccc2cc(S(=O)(=O)Nc3ccon3)ccc21`, in experiment [1], the IC50 was 8 nM.

The values are drawn from ChEMBL document CHEMBL5727835, “Alkynyl dihydroquinoline sulfonamide compounds” (2020).
